Test results reported in patent publication US5830910A (priority 1995, dated 1998).

Experiments:
[1] = system: cultured hippocampal neurons; assay: cells; format: cell-based, rat
Text: (§1) Dissociated embryonic rat hippocampal cell cultures were established and maintained. All procedures conformed with the NIH Guide for the Care and Use of Laboratory Animals and were approved by the University of Kentucky Animal Care and Use Committee. Cultures were maintained on a polyethyleneimine-coated substrate in plastic 35-mm dishes or 96 wall plates (for cell survival studies) or glass-bottom 35-mm dishes (for [Ca^2+ ]i imaging studies). The cell density was ^~ 70-100 cells/mm^2. Cells were maintained in Eagle's minimum essential medium supplemented 10% with fetal bovine serum and containing 20 mM sodium pyruvate. […] Aβ25-35 (Bachem, lot ZJ744) and Aβ1-40 (Bachem, lot ZK600) were stored in the lyophilized form, and stocks were prepared immediately before use by dissolving the peptide at a concentration of 1 mM in sterile distilled water. […] Glutamate and colchicine (Sigma) were prepared as 200-500x stocks in saline. Cytochalasins D and E (Sigma) and calcium ionophore 4-bromo-A23187 (Calbiochem) were prepared as 500x stocks in dimethyl sulfoxide. Vitamin E (α-tocopherol; Sigma) was prepared as a 500x stock in ethanol. Nordihydroguaiaretic acid and FeSo4 were prepared as 500x stocks in sterile water.
(§2) Neuronal survival was quantified by counting viable neurons in the same microscope fields (10x objective) immediately before experimental treatment and at time points after treatment. In addition, cells were grown in 96-well plates and Alamar blue fluorescence (Alamar Laboratories)was quantified by using a fluorescence plate reader. Alamar Blue is a non-fluorescent substrate that, after reduction by cell metabolites, becomes fluorescent. Usually neurons that died in the time intervals (20-48 h) between examination points were absent. Viability of the remaining neurons was assessed by morphological criteria. Neutrons with intact neurites of uniform diameter and a soma with a smooth, round appearance were considered viable, whereas neurons with fragmented neurites and a vacuolated or swollen soma were considered nonviable. Survival values were expressed as percentages of the initial number of neurons present before experimental treatment. Statistical comparisons were made using ANOVA and Scheffe post-hoc tests for pairwise comparisons.
Values represent the means and SEM of 4 separate cultures (cell counts) or 4 culture wells (Alamar blue assay). ^a p<0.05 compared to control value. ^b p<0.001 compound to control value. ^c p<0.01 compared to value for glutamate-treated cultures. ^d p<0.005 compared to value for glutamate-treated cultures. ^e p<0.001 compared to value for Aβ-treated cultures. ^f p<0.001 compared to value for cultures treated with 20 μM glutamate. ^g p<0.001 compared to cultures treated with 50 μM Aβ+20 μM glutamate. n.d. not determined.

[2] = system: neuronal [Ca^2+]i in cultured hippocampal neurons; assay: measurement of [Ca^2+]i, fura-2 imaging; format: cell-based, rat; conditions: 50 μM Aβ
Text: as §1
Fluorescence ratio imaging of the Ca^2+ indicator dye fura-2 was used to quantify [Ca^2+ ]i in neuronal somata. Cells were incubated for 30-40 min in the presence of 2 μM acetoxymethyl ester form of the [Ca^2+ ]i indicator dye fura-2 and were then washed twice (2 ml/wash) with fresh medium and allowed to incubate at least 40 min before imaging. Immediately before imaging, the normal culture medium was replaced with Hanks' balanced saline solution (GIBCO) containing 10 mM HEPES buffer and 10 mM of glucose. Cells were imaged using a Zeiss Attofluor system with a oil objective or Quantex system with a 40x oil objective. The ratio of the fluorescence emission using two different excitation wavelengths (334 and 380 nm) was used to determine [Ca^2+ ]i. The system was calibrated using solutions containing either no Ca^2+ or a saturating level of Ca^2+ (1 mM) according to the following formula: [Ca^2+ ]i =KD [(R-Rmin) / (Rmax -R)] (F0 /FS). Values represent the average [Ca^2+ ]i in the neuronal cell body. Experimental treatments were added to the bathing medium by dilution from 100-500x stocks.
(A) Cultures were pretreated for 1 hr with 100 nM cytochalasin D and then [Ca^2+ ]i in neurons was monitored prior to and following exposure to 50 μM glutamate. The records represent the mean [Ca^2+ ]i in 8-12 neurons. Similar results were obtained in 4 separate experiments.
(B) Aβ-induced potentiation of [Ca^2+ ]i response to glutamate is abrogated by cytochalasin D. Cultures were left untreated (Control) or were exposed to 20 μM Aβ25-35 for 6 hr or cytochalasin D plus Aβ25-35 for 6 hr. The [Ca^2+ ]i was then monitored prior to following exposure to 50 μM glutamate. Values represent the means of 8-14 neurons. Similar results were obtained in 3 separate experiments.
(C) Cultures were pretreated for 3 hr with 50 μM Aβ alone or in combination with 100 nM cytochalasin D. The [Ca^2+ ]i in neurons was then monitored prior to and following exposure to 50 mM KCl. Values represent the mean of 14-23 neurons. Similar results were obtained in a separate experiment.
(D) Cultures were pretreated for 1 h with 100 nM cytochalasin D. The [Ca^2+ ]i in neurons was measured immediately prior to, and at 5 min following, exposure to the indicated concentrations of glutamate. Values represent the means and SEM of determinations made in 17-26 neurons. *P<0.05 (10 μM glutamate), P<0.02 (50 μM glutamate), P<0.01 (100 μAM glutamate) compared to corresponding control values.
FIG. 9. Cultures were pretreated for 3 h with vehicle (control) or 10 μM jasplakinolide. The [Ca^2+ ]i was monitored prior to and following exposure to 50 μM glutamate. Values represent the mean of determinations made in 10-12 neurons. Similar results were obtained in two additional experiments.
FIG. 10. […]

[3] = system: cultured hippocampal neurons; format: cell-based, rat
Text: as §1, §2
FIG. 12. (A) Cultures were pretreated for 1 h with vehicle 0.2% dimethyl sulfoxide (Control) or 100 nM cytochalasin D (CyD) and were exposed to the indicated concentrations of Aβ25-35 for 48 h. Data are mean and SEM values of determinations made in four separate cultures.
(B) Cultures were pretreated for 1 h with the indicated concentrations of cytochalasin D and then exposed to 50 μM Aβ25-35; parallel cultures were exposed to cytochalasin D alone (Control) . Data are mean and SEM values of determinations made in four separate cultures.
FIG. 14. Cultures were exposed to 100 nM colchicine; 50 μM Aβ; 100 nM colchicine plus 50 μM Aβ; 100 nM cytochalasin E (CyE) plus Aβ (colchicine and cytochalasin E were added 1 h before Aβ); neuronal survival was assessed 48 h later. Data are mean and SEM values of determinations made in four separate cultures. *p<0.01, compared with values for control or colchicine alone. **p<0.01, compared with value for cultures exposed to Aβ alone.

[4] = system: cultured hippocampal neurons; assay: neurotoxicity of combined exposure to Aβ and glutamate; format: cell-based, rat; conditions: 50 μM Aβ plus 20 μM glutamate, 48 h; compared with either insult alone
Text: Dissociated embryonic rat hippocampal cell cultures were established and maintained. All procedures conformed with the NIH Guide for the Care and Use of Laboratory Animals and were approved by the University of Kentucky Animal Care and Use Committee. Cultures were maintained on a polyethyleneimine-coated substrate in plastic 35-mm dishes or 96 wall plates (for cell survival studies) or glass-bottom 35-mm dishes (for [Ca^2+ ]i imaging studies). The cell density was ^~ 70-100 cells/mm^2. Cells were maintained in Eagle's minimum essential medium supplemented 10% with fetal bovine serum and containing 20 mM sodium pyruvate. […]
Neuronal survival was quantified by counting viable neurons in the same microscope fields (10x objective) immediately before experimental treatment and at time points after treatment. In addition, cells were grown in 96-well plates and Alamar blue fluorescence (Alamar Laboratories)was quantified by using a fluorescence plate reader. […] Viability of the remaining neurons was assessed by morphological criteria. […] Survival values were expressed as percentages of the initial number of neurons present before experimental treatment. […]
FIG. 13. […] Neuronal survival was assessed 48 h after treatment. […]

[5] = aggregation of peptides in culture medium; format: physicochemical
Text: as §1

[6] = system: neuronal [Ca^2+]i in cultured hippocampal neurons; assay: measurement of [Ca^2+]i, fura-2 imaging; format: cell-based, rat; conditions: 50 μM glutamate

Q: What does the source list for “Aβ25-35: Aβ25-35 (Bachem, lot ZJ744), amyloid β-peptide fragment (GSNKGAIIGLM; Amyloid-beta protein 42; UniProt P05067 696-706, looked up, fragment) [reference compound]”?
A: Neuron Survival (% of control), Alamar Blue Assay ([1]; 50 μM Aβ + 20 μM Glutamate): 24 ± 0.8 % of control; Neuron Survival (% of control), Alamar Blue Assay ([1]; 50 μM, alone): 47 ± 3.5 % of control; rest [Ca^2+]i ([2]; 3 h): ~ 280 nM; rest [Ca^2+]i ([2]; 6 h): ~ 440 nM; neuronal survival in cultures exposed to Aβ25-35 ([3]; 50 μM, 24 hr): less than 50 % of control values; neuronal survival upon exposure to Aβ25-35 ([3]; 24-h incubation): concentration-dependent reduction in neuronal survival; neurotoxicity, preliminary characterization ([3]; 48-h period, added in soluble form): progressively killed neurons; neuronal death on combined exposure to Aβ and glutamate [4]: significantly more neuronal death; aggregation in culture medium [5]: aggregated rapidly; [Ca^2+]i reached after glutamate in Aβ-pretreated cultures ([6]; Aβ pretreatment 3 h): > 1,500 nM; [Ca^2+]i reached after glutamate in Aβ-pretreated cultures ([6]; Aβ pretreatment 3 hr): over 1 μM
